Experimental data published in US5604209A, “Synergistic antiviral compositions” (Mitsubishi Chemical Corporation, priority 1993, dated 1997).

Key:
[1] = background statement; cited from earlier work
[2] = target: T1, HIV-1 reverse transcriptase (Human immunodeficiency virus type 1 group M subtype B, UniProt P04585); experiment: Inhibition of HIV-1 reverse transcriptase (incorporation of tritiated thymidine phosphate into cDNA), alone and combined with AZT-TP; type: biochemical; conditions: for Combination Index CI50 (50% inhibition of RT) / Combination Index CI70 (70% inhibition of RT) / Combination Index CI90 (90% inhibition of RT): in combination with AZT-TP, AZT-TP/compound ratio 1/20 (MKC-442), 1/250 (R82913), 1/250 (Nevirapine), 1/40 (L-696229), CI<1 synergistic, CI>1 counterbalance
T1 construct: HIV-1 reverse transcriptase (RT)
Method: The inhibitory activity was evaluated on the basis of the incorporation Of tritiated thymidine phosphate into acid-precipitating cDNA in the presence of HIV-1 reverse transcriptase (RT).
To a reaction solution (50 mM Tris-HC1, pH 8.4, 0.1% Triton X-100, 100 mM magnesium chloride, 2 mM dithiothreitol, 50 mM potassium chloride, 0.1 mg/ml bovine serum albumin (nuclease-free, Worthington, Freehold, N.J.), 0.5 μCi [methyl-^3 H]TTP and 12 μg/ml poly(rA). p(dT)12-18)was added 10% solution of a test drug in dimethyl sulfoxide and RT (0.05 units) to obtain a reaction mixture of total volume of 50 μl. The mixture was incubated at 37° C. for 30 min and the reaction stopped with 2M EDTA (10 μl). The resultant reaction mixture (50 μl) was spotted on Whatman DE-81 filter paper circle. The circle was washed with 5% disodium hydrogenphosphate (×3), water (×2) and 95% ethanol (×2) and the radiation was counted with scintillation counter.
Thus, an isoborogram was prepared to evaluate the effect of combined use of AZT-TP and various allosteric inhibitors according to the method of Chou et al., Adv. Enzyme Regul., 22, 27-55 (1984) (FIG. 1). The data plotted were obtained by dividing IC50, the concentration of an allosteric inhibitor required to achieve 50% inhibition of reverse transcriptase of HIV, in the presence of AZT-TP with IC50 of an allosteric inhibitor obtained in the absence of a given concentration of AZT-TP. In the FIG. 1, each symbol represents individual allosteric inhibitor as follows.
Combination indexes (CI) for 50%, 70% and 90% inhibition of RT (representedby CI50, CI70 and CI90) were calculated according to the method of Prichard et al., Antimicrob. Agents Chemother., 35, 1060-1065 (1991) on the basis of results obtained in experiments carried out at least twice at indicated concentration ratio. Results are shown in Table 1 below, wherein CI<1 means the synergistic effect; CI1, additive effect; and CI>1, counterbalance effect.

SMILES	reported side effects [1]	concentration of AZT-TP for 50% inhibition of RT as fraction of its IC50 alone ([2]; in the presence of MKC-442 at 1/2 concentration of its IC50)	Combination Index CI50 (50% inhibition of RT) [2]	Combination Index CI70 (70% inhibition of RT) [2]	Combination Index CI90 (90% inhibition of RT) [2]	IC50 ([2]; used alone, poly(rA).p(dT)12-18 template, 37° C., 30 min, read-out: IC50 (concentration required to obtain 50% inhibition of RT when used alone)) [nM]
Cc1cn([C@H]2C[C@H](N=[N+]=[N-])[C@@H](CO)O2)c(=O)[nH]c1=O [AZT, 3'-azide-3'-deoxythymidine]	severe anemia or leukopenia due to suppression of bone marrow	–	–	–	–	–
Cc1cn([C@H]2C[C@H](N=[N+]=[N-])[C@@H](COP(=O)(O)OP(=O)(O)OP(=O)(O)O)O2)c(=O)[nH]c1=O [AZT-TP, 3'-azide-3'-deoxythymidine triphosphate]	–	about 1/10	–	–	–	–
CCc1cc(CCc2nc3ccccc3o2)c(=O)[nH]c1C [L-696229, 3-[2-(Benzoxazole-2-yl)ethyl]-5-ethyl-6-methylpyridine-2(1H)-one]	–	–	0.97	0.99	1.06	–
CCOCn1c(Cc2ccccc2)c(C(C)C)c(=O)[nH]c1=O [MKC-442, 6-Benzyl-1-ethoxymethyl-5-isopropyluracil]	–	–	0.82	0.63	0.43	33.5
Cc1ccnc2c1NC(=O)c1cccnc1N2C1CC1 [Nevirapine, 5,11-Dihydro-11-cyclopropyl-4-methyldipyrido[2,3,-b:2',3'-e][1,4]diazepine-6-one]	–	–	1.04	0.91	0.69	–
CC(C)=CCN1Cc2cc(Cl)cc3[nH]c(=S)n(c23)C[C@@H]1C [R82913, (+)-(S)-9-Chloro-4,5,6,7-tetrahydro-5-methyl-6-(3-methyl-2-butenyl)imidazo[4,5,1-jk][1,4]benzodiazepine-2(1H)-thione]	–	–	1.15	1.33	1.70	–
